Tests used:
Pancreatic lipase (PL) = molecular target: T1, Pancreatic lipase (PL) (Sus scrofa, UniProt P00591); test: Inhibition of PL-mediated 4-MUO hydrolysis; assay type: biochemical; details: for Inhibition mode PL / Ki / IC50: 4-MUO substrate; for Ki: Lineweaver–Burk second plot; for IC50: mean ± SD (n = 3); for Reversibility of PL inhibition: dose-response curves not affected by pre-incubation times
T1 construct: purchased Sigma Aldrich type II, Lot.SLBN9099V
T1 sequence (P00591 1-450): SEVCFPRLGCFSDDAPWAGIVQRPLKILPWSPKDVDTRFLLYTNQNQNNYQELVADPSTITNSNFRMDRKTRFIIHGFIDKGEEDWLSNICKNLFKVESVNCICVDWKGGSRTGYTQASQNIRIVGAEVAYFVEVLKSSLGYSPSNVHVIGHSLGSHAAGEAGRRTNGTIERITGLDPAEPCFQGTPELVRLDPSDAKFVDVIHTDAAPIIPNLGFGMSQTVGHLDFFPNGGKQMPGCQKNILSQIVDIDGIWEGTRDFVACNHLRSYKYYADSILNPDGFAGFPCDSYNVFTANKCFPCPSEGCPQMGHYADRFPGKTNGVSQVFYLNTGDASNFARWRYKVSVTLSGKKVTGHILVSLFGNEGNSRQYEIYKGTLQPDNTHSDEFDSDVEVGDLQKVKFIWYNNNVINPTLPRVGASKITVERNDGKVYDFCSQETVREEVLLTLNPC
Experimental: In addition, the background fluorescence in the absence of an enzyme source (PL) (add the same amount of citrate-Na2HPO4 buffer) was measured. […] Then start the reaction by adding 2 µL of 4-MUO probe (3 µM, final concentration). The fluorescence signal of 4-MU (hydrolytic metabolite) was detected by multi-mode microplate reader (SpectraMax M4, Molecular Devices, Urstein, Austria) with continuous oscillation for 20 min and recorded and analysed at 60 s intervals. The excitation wavelength and emission wavelength of 4-MU were set at 340 nm and 460 nm, respectively, and the gain value was 500.
Subsequently, various concentrations of substrates (selected according to Km) and different concentrations of inhibitors were used to determine the corresponding reaction rate, and the second slope graph of the Lineweaver–Burk diagram was used as a function of the inhibitor to calculate the corresponding inhibition constant (Ki) value. All kinetic data were fitted by the following kinetic equations (a–c), for competitive (a), non-competitive (b) and mixed inhibition (c): (a) V=(VmaxS)/[Km(1+I/Ki)+S] (b) V=(VmaxS)/[(Km+S)×(1+I/Ki)] (c) V=(VmaxS)/[(Km+S)×(1+I/αKi)] where V is the hydrolytic velocity of the reaction, Vmax is the maximum velocity. S and I are substrate (4-MUO, NLMe) and inhibitor (compound 39/41) concentrations, respectively. Ki is the inhibition constant of the tested inhibitor against the target PL and hCES1A; Km is the Michaelis constant (the substrate concentration at half of the Vmax).
All measurements were made in triplicate and the data obtained in the experiment were shown as mean ± SD.

hCES2A = molecular target: T2, hCES2A (Homo sapiens, UniProt O00748); test: Inhibition of hCES2A-mediated FD hydrolysis; assay type: biochemical; details: FD substrate, mean ± SD (n = 3); read-out: IC50 (µM) hCES2A
T2 sequence (O00748 27-559): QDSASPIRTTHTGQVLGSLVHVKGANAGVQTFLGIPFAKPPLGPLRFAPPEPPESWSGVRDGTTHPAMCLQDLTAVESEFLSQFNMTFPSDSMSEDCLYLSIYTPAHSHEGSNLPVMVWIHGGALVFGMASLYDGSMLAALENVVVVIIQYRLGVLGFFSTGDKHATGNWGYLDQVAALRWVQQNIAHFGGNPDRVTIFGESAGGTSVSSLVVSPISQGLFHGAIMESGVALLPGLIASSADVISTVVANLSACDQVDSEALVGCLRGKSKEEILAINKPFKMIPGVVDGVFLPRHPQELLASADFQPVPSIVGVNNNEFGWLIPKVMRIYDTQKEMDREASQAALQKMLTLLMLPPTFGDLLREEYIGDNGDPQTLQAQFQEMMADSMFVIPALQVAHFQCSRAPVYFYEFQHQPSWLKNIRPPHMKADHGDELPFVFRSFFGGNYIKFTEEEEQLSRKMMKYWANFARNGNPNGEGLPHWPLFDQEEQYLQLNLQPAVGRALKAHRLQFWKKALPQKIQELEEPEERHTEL
Source text: […] (FD) was used as the hCES2A specific probe substrate to assay the inhibitory effect of natural triterpenoids on hCES2A. The entire detailed operation process refers to the previously reported method, and finally the FD mixture was put into the multi-mode microplate reader for analysis and detection.

[1] = molecular target: dipeptidyl peptidase-IV (DPP-IV) (Homo sapiens, UniProt P27487); test: Inhibition of DPP-IV-mediated GP-BAN hydrolysis; assay type: biochemical; details: substrate: GP-BAN
dipeptidyl peptidase-IV (DPP-IV), sequence (P27487 whole entry): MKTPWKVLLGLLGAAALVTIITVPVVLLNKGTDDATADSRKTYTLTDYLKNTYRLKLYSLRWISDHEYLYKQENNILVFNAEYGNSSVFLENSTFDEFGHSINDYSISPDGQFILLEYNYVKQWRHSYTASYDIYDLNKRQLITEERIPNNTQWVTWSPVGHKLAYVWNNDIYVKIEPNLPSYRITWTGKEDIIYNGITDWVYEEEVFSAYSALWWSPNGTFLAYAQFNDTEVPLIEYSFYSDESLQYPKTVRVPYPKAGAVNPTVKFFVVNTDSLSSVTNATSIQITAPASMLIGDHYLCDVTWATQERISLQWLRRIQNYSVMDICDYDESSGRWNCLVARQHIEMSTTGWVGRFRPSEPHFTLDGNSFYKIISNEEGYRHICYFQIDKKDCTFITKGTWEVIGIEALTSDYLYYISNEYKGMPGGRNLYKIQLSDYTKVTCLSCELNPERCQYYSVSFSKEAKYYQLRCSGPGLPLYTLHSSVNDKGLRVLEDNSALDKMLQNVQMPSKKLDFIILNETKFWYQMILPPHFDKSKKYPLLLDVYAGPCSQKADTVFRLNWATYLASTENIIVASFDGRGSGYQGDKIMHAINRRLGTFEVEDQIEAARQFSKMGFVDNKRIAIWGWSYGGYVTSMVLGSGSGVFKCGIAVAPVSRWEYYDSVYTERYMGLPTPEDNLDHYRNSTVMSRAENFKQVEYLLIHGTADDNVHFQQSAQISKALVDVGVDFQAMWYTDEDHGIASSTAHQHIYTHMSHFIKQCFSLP
Experimental: The details for DPP-IV inhibition has been reported previously[49]^,[50]. The fluorescent signal of the hydrolytic product (BAN) was measured by a fluorescence microplate reader at an excitation wavelength of 430 nm, an emission wavelength of 535 nm (gain = 500).

3T3-L1 cells [2] = test: Cytotoxicity assay (CCK-8) in 3T3-L1 cells; assay type: cell-based; details: CCK-8, 48 h, 0–100 µM
Experimental: The effect of compounds 39 and 41 on cell viability of the 3T3-L1cells was measured using Cell Counting Kit-8 (Dalian Meilun Biotechnology Co., Ltd., Dalian, China). Briefly, 3T3-L1 cells (5 × 10^4/mL, 100 µL) were seeded in the 96-well plate, After 24 h incubation, then the cells were treated with different concentrations of compounds 39 and 41 (0–100 µM) for another 48 h. Then, CCK-8 (10%, v/v, 100 µL) was added to each well and incubated at 37 °C for additional 2 h. The absorbance was determined by microplate reader at 450 nm. The percentage of cell viability was calculated towards control. Each condition included replicate wells with at least four independent repeats.

3T3-L1 cells [3] = test: Lipid droplet formation in differentiating 3T3-L1 cells (Oil red O staining); assay type: cell-based, mouse; details: high concentration (5 µM)
Experimental: The cells were planted in a well plate and cultured for 48 h after the cells were 100% confluent. Mix inhibitors compounds 39 and 41 with solution I (10 µg/mL insulin in DMEM/F: 12 medium, 0.5 mM 3-isobutyl-1-methylxanthine and […]) to different concentrations, Then added to different wells and incubated for 48 h, then the inhibitor was mixed with solution II (5 µg/mL insulin in DMEM/F: 12 medium), then added to the wells of the same concentration and incubated for 48 h. Then, the medium in the well was replaced with DMEM/F:12 medium with different concentrations of inhibitors, and the culture was continued for 48 h.
The lipid droplets of 3T3-L1 cells were stained with Oil Red O stain kit (Beijing solebo Technology Co., Ltd., Beijing, China) after cultured for 48 h. In short, 3T3-L1 cells were washed with PBS 2 times and fixed with ORO fixative for 20–30 min, and then washed again with deionised water for 3 times. Then, 3T3-L1 cells were washed with 60% isopropanol for 5 min, immersed in oil red O solution for 10–20 min, and washed with deionised water for 3–5 times. Mayer's haematoxylin staining solution was added, the nucleus was stained for 1–2 min, then washed for 3–5 times, and Oro buffer solution was added for 1 min. Finally, distilled water was added to cover the cells. The stained lipid droplets were observed under inverted microscope (Lecai DMI8).

Row | SMILES | Inhibition mode PL (Pancreatic lipase (PL)) | Ki (Pancreatic lipase (PL)) | IC50 (Pancreatic lipase (PL)) | Reversibility of PL inhibition (Pancreatic lipase (PL)) | IC50 (hCES2A) | IC50 [1] | concentration below which almost non-toxic to 3T3-L1 (cell viability) (3T3-L1 cells [2]) | lipid droplet formation (3T3-L1 cells [3])
1 | CC1(C)CCC2(C(=O)O)CCC3(C)C(=CCC4C5(C)C=C(O)C(=O)C(C)(C)C5CCC43C)C2C1 (stereo not shown) [Compound 39] | Mixed | 1.45 µM | 2.13 ± 0.19 µM | reversible inhibitors | 6.02 ± 0.75 µM | > 100 µM | below 20 µM | almost no lipid droplets were formed
2 | CC(=O)OC1CCC2(C)C(CCC3(C)C2CC=C2C4C(C)C(C)CCC4(C(=O)O)CCC23C)C1(C)C (stereo not shown) [Compound 41] | Mixed | 0.58 µM | 0.75 ± 0.12 µM | reversible inhibitors | 5.02 ± 0.88 µM | > 100 µM | < 10 µM | almost no lipid droplets were formed
